Data: patent US11673892B2, “Bicyclic compounds for use as RIP1 kinase inhibitors” (Genentech, Inc., priority 2017, dated 2023)

Each molecule was assayed against T1, human RIP1 kinase domain (2-375) (Homo sapiens, UniProt Q13546) (assay: RIP1 kinase inhibition biochemical assay (Transcreener ADP, fluorescence polarization)). Conditions: Ki app (Morrison tight-binding fit); 50 nM enzyme, 50 uM ATP, 2 hours incubation.
T1 construct: Purified human RIP1 kinase domain (2-375) (50 nM); made in house; host or cells: baculovirus-infected insect cells
T1 sequence (Q13546 2-375): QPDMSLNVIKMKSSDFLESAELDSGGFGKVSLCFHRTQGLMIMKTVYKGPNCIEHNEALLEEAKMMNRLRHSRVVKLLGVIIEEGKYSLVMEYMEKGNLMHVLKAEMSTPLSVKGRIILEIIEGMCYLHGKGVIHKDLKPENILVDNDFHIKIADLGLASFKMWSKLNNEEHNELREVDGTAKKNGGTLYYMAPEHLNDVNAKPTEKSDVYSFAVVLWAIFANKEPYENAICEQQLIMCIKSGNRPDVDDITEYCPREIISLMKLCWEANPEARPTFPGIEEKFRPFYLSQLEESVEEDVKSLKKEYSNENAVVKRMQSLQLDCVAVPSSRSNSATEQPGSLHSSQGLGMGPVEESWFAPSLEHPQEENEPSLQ
Method: RIP1 Kinase Inhibition Assays (Biochemical Assay)
The compounds of the present invention were tested for their capacity to inhibit RIP1K activity as described below.
The ability of the receptor interacting protein kinase (RIPK1) to catalyze the hydrolysis of adenosine-5′-triphosphate (ATP) is monitored using the Transcreener ADP (adenosine-5′-diphosphate) assay (BellBrook Labs). Purified human RIP1 kinase domain (2-375) (50 nM) derived from a baculovirus-infected insect cell expression system is incubated with test compounds for 2 hours in 50 mM Hepes buffer (pH 7.5) containing 30 mM MgCl2, 1 mM dithiothreitol, 50 uM ATP, 0.002% Brij-35, and 0.5% dimethyl sulfoxide (DMSO). Reactions are quenched by the addition of 1× Bell Brooks Stop buffer B (20 mM Hepes (ph7.5), 40 mM ethylenediaminetetraacetic acid and 0.02% Brij-35) containing an additional 12 mM EDTA and 55 ug/mL ADP2 antibody and 4 nM ADP-AlexaFluor® 633 tracer. The tracer bound to the antibody is displaced by the ADP generated during the RIP1K reaction, which causes a decrease in fluorescence polarization that is measured by laser excitation at 633 nm with a FP microplate reader M1000. Fractional activity was plotted against test article concentration. Using Genedata Screener software (Genedata; Basel, Switzerland), the data were fit to the tight-binding apparent inhibition constant (Ki^app) Morrison equation [Williams, J. W. and Morrison, J. F. (1979) The kinetics of reversible tight-binding inhibition. Methods Enzymol 63: 437-67]. The following equation was used to calculate fractional activity and Ki^app:
[formula] where [E]T and [I]T are the total concentrations of active enzyme and test article, respectively.
Exemplary compounds of the present invention are provided in Table 1 along with their physiochemical characterization and in vitro RIP1 kinase inhibitory activity data. “Method” in the first column of each table refers to the synthetic method(s) used to prepare each compound as shown in the Examples above. In certain examples, chiral column retention times (min) are provided for certain stereoisomers. Unless otherwise specified, the stereochemistry shown in each structure represents relative configuration of a single stereoisomer, and absolute configuration (i.e., “R” and/or “S”) is arbitrarily assigned. In some embodiments, where the Method is described to include the separation of stereoisomers, a single stereoisomer of a compound of Table 1 is provided.

Row | Ki [nM] | Structure (SMILES)
1 | 81 | O[C@H](c1cc2n(n1)[C@@H](c1ccccc1)C[C@H]2F)C1CC1 (single isomer, unassigned) [Example 115]
2 | 41 | CCC(F)(F)c1nc2n(n1)C(c1ccccc1)CC2F (racemic) [Example 2, Cis-2-(1,1-difluoropropyl)-7-fluoro-5-phenyl-6,7-dihydro-5H-pyrrolo[1,2-b][1,2,4]triazole]
3 | 34 | CC1(C(F)(F)c2nc3n(n2)[C@H](c2ccccc2)C[C@@H]3F)COC1 (single isomer, unassigned) [Example 17]
4 | 280 | N#Cc1ccn(-c2nc3n(n2)[C@H](c2ccccc2)C[C@@H]3F)n1 (single isomer, unassigned) [Example 53]
5 | 45 | Cc1ccc2c(c1)nnn2-c1nc2n(n1)[C@H](c1ccccc1)C[C@@H]2F (racemic) [Example 88, 5-methyl-1-[rac-(5S,7S)-7-fluoro-5-phenyl-6,7-dihydro-5H-pyrrolo[1,2-b][1,2,4]triazol-2-yl]benzotriazole]
6 | 4.8 | N#C[C@H]1C[C@@H]1C(F)(F)c1nc2n(n1)[C@H](c1ccccc1)C[C@@H]2F (mixture of isomers) [Example 113, rac-(1S,2S)-2-[difluoro-[(5S,7S)-7-fluoro-5-phenyl-6,7-dihydro-5H-pyrrolo[1,2-b][1,2,4]triazol-2-yl]methyl]cyclopropane carbonitrile]
7 | 140 | F[C@H]1C[C@@H](c2ccccc2)n2nc(-c3cnoc3)nc21 (single isomer, unassigned) [Example 99]
8 | 6 | F[C@H]1C[C@@H](c2ccccc2)n2nc(C(F)(F)C34CC(C3)C4)nc21 [Example 42, (5S,7S)-2-[1-bicyclo[1.1.1]pentanyl(difluoro)methyl]-7-fluoro-5-phenyl-6,7-dihydro-5H-pyrrolo[1,2-b][1,2,4]triazole]
9 | 41 | N#Cc1cnn(-c2nc3n(n2)[C@H](c2ccccc2)C[C@@H]3F)c1 (single isomer, unassigned) [Example 54]
10 | 720 | Cc1nn(-c2nc3n(n2)[C@H](c2ccccc2)C[C@@H]3F)c(N)c1C#N (single isomer, unassigned) [Example 65]
11 | 160 | F[C@H]1C[C@@H](c2ccccc2)n2nc(-n3cnc(C(F)(F)F)c3)nc21 (single isomer, unassigned) [Example 62]
12 | 18 | F[C@H]1C[C@@H](c2ccccc2)n2nc(-n3nnc4c3CCCC4)nc21 (racemic) [Example 86, 1-(rac-(5S,7S)-7-fluoro-5-phenyl-6,7-dihydro-5H-pyrrolo[1,2-b][1,2,4]triazol-2-yl]-4,5,6,7-tetrahydrobenzotriazole]
13 | 39 | C[C@H]1C[C@@H]1c1nc2n(n1)[C@H](c1ccccc1)C[C@@H]2F (single isomer, unassigned) [Example 95]
14 | 130 | COc1cnn(-c2nc3n(n2)[C@H](c2ccccc2)C[C@@H]3F)c1 (single isomer, unassigned) [Example 57]
15 | 33 | CC[C@](C)(F)c1nc2n(n1)[C@H](c1ccccc1)C[C@@H]2F (single isomer, unassigned) [Example 27]
16 | 83 | O[C@@H](c1nc2n(n1)[C@H](c1ccccc1)C[C@@H]2F)C1CC1 (single isomer, unassigned) [Example 35]
17 | 4 | Fc1ccccc1[C@@H]1C[C@H](F)c2nc(C(F)(F)C3CC3)nn21 (single isomer, unassigned) [Example 104]
18 | 70 | F[C@H]1C[C@@H](c2ccccc2)n2nc(C3CC3(F)F)nc21 (stereo partly drawn) [Example 28, (5S,7S)-2-(2,2-difluorocyclopropyl)-7-fluoro-5-phenyl-6,7-dihydro-5H-pyrrolo[1,2-b][1,2,4]triazole]
19 | 92 | Cc1ccnn1-c1nc2n(n1)[C@H](c1ccccc1)C[C@@H]2F (single isomer, unassigned) [Example 63]
20 | 29 | F[C@H]1C[C@@H](c2ccccc2)n2nc(-n3ncc4ncccc43)nc21 (single isomer, unassigned) [Example 84]

Row | Ki [nM] | Structure (SMILES)
21 | < 5 | N#Cc1cccc2c1cnn2-c1nc2n(n1)[C@H](c1ccccc1)C[C@@H]2F (single isomer, unassigned) [Example 72]
22 | 4 | F[C@@H]1C[C@H]1C(F)(F)c1nc2n(n1)[C@H](c1ccccc1)C[C@@H]2F (racemic) [Example 23, (5S,7S)-2-[difluoro-(rac-(1R,2R)-2-fluorocyclopropyl)methyl])-7-fluoro-5-phenyl-6,7-dihydro-5H-pyrrolo[1,2-b][1,2,4]triazole]
23 | 30 | CC(C)c1cnn(-c2nc3n(n2)[C@H](c2ccccc2)C[C@@H]3F)c1 (single isomer, unassigned) [Example 39]
24 | 68 | CC(C)(C)C(F)(F)c1nc2n(n1)C(c1ccccc1)CC2F (racemic) [Example 9, Cis-2-(1,1-difluoro-2,2-dimethyl-propyl)-7-fluoro-5-phenyl-6,7-dihydro-5H-pyrrolo[1,2-b][1,2,4]triazole]
25 | 51 | CCC(F)c1nc2n(n1)C(c1ccccc1)CC2F (stereo not drawn) [Example 3, Cis-7-fluor-2-(1-fluoropropyl)-5-phenyl-6,7-dihydro-5H-pyrrolo[1,2-b][1,2,4]triazole]
26 | 1100 | F[C@@H]1C[C@H](c2ccccc2)n2nc(CCC(F)(F)F)nc21 (single isomer, unassigned) [Example 15]
27 | 180 | FC(F)c1nc2n(n1)[C@@H](c1ccccc1)C[C@H]2F (single isomer, unassigned) [Example 118]
28 | 420 | CC(F)(F)C(O)c1nc2n(n1)[C@H](c1ccccc1)C[C@@H]2F (stereo partly drawn) [Example 117, 2,2-difluoro-1-[(5S,7S)-7-fluoro-5-phenyl-6,7-dihydro-5H-pyrrolo[1,2-b][1,2,4]triazol-2-yl]propan-1-ol]
29 | 820 | Cn1ccnc1-c1nc2n(n1)[C@H](c1ccccc1)C[C@@H]2F (single isomer, unassigned) [Example 61]
30 | 3.1 | [2H][C@](F)(c1nc2n(n1)[C@H](c1ccccc1)C[C@@H]2F)C1CC1 (single isomer, unassigned) [Example 110]
31 | 910 | COC[C@@H]1C[C@H]1c1nc2n(n1)[C@H](c1ccccc1)C[C@@H]2F (racemic) [Example 24, (S,7S)-7-fluoro-5-phenyl-2-[rac-(1R,2R)-2-(methoxymethyl)cyclopropyl]-6,7-dihydro-5H-pyrrolo[1,2-b][1,2,4]triazole]
32 | 69 | CCC(C)(F)c1nc2n(n1)C(c1ccccc1)CC2F [Example 6, Cis-(5S,7S)-2-(1-fluoro-1-methyl-propyl)-7-fluoro-5-phenyl-6,7-dihydro-5H-pyrrolo[1,2-b][1,2,4]triazole]
33 | 220 | CC(C)(C#N)c1nc2n(n1)[C@H](c1ccccc1)C[C@@H]2F (racemic) [Example 103, 2-[rac-(5S,7S)-7-fluoro-5-phenyl-6,7-dihydro-5H-pyrrolo[1,2-b][1,2,4]triazol-2-yl]-2-methyl-propanenitrile]
34 | 12 | F[C@H]1C[C@@H](c2ccccc2)n2nc(CCC(F)(F)F)nc21 (single isomer, unassigned) [Example 18]
35 | 110 | OC(c1nc2n(n1)[C@H](c1ccccc1)C[C@@H]2F)[C@H]1C[C@@H]1F (stereo partly drawn) [Example 106, [(1R,2S)-2-fluorocyclopropyl]-[(5S,7S)-7-fluoro-5-phenyl-6,7-dihydro-5H-pyrrolo[1,2-b][1,2,4]triazol-2-yl]methanol]
36 | 230 | F[C@H]1C[C@@H](c2ccccc2)n2nc([C@H](F)C34CC(C3)C4)nc21 (single isomer, unassigned) [Example 45]
37 | 81 | CC1(C)CC1c1nc2n(n1)[C@H](c1ccccc1)C[C@@H]2F (stereo partly drawn) [Example 30, (5S,7S)-2-(2,2-dimethylcyclopropyl)-7-fluoro-5-phenyl-6,7-dihydro-H-pyrrolo[1,2-b][1,2,4]triazole]
38 | 190 | Fc1ccccc1[C@@H]1CCc2nc(CC3CC3)nn21 (single isomer, unassigned) [Example 98]
39 | 190 | CS(=O)(=O)c1cnn(-c2nc3n(n2)[C@H](c2ccccc2)C[C@@H]3F)c1 (single isomer, unassigned) [Example 80]
